Measured values taken from patent publication US9872495B2, “Peptoid oligomers, pharmaceutical compositions and methods of using the same” (priority 2009, dated 2018).
≈ marks a conversion by molar mass, not a printed value. Read-outs that look alike come from different tables or passages of the source. Numbered stars: 1 amine (or outer) side, 2 acyl side, 3 side chain; on linkers, the order of the positions; unused ones are H or OH. Square brackets hold non-standard residues; d marks the D form. Peptide text beside a SMILES is read from it. X1 = O=C(CN(CC(c1ccccc1)c1ccccc1)[*:1])[*:2]; Gly(N(CH2)3NH2) = NCCCNCC(=O)O; NhArg = N=C(N)NCCCCNCC(=O)O; N(iPr)Gly = CC(C)NCC(=O)O; Nphe = O=C(O)CNCc1ccccc1; Nleu = CC(C)CNCC(=O)O; Nlys = NCCCCNCC(=O)O

Legend:
Type in all cases: cell-based
[1] = test system: Bacillus subtilis ATCC 6633
Protocol: (§1) Antimicrobial activity was tested against the gram-negative strain Escherichia coli ATCC 25922, and […] strains Staphylococcus aureus ATCC 25923, and Bacillus subtilis ATCC 6633, according to the guidelines given in the document […]-A7 of the CLSI (Clinical and Laboratory Standards Institute; Clinical and Laboratory Standards Institute. Methods for Dilution Antimicrobial Susceptibility Tests for Bacteria That Grow Aerobically-Seventh Edition: Approved Standard CLSI document […]-A7. CLSI, Wayne, USA, 2006). This reference is incorporated herein in its entirety. Hemolytic activity was tested against fresh human erythrocytes.

[2] = test system: Escherichia coli ATCC 25922
Protocol: as §1

[3] = test system: Staphylococcus aureus ATCC 25923
Protocol: as §1

[4] = test system: fresh human erythrocytes; assay: Hemolytic activity
Protocol: Typically, toxicity is evaluated by hemolytic concentration50 (HC50), which measures the concentration of antimicrobial agents at which 50% of the erythrocytes in the culture are lysed. Significant hemolysis, as evaluated by HC50, was detectable only for peptide gramicidin S (40 μg/mL). […] In order to test hemolytic activity of peptoid oligomers further, more stringent parameters were used. Instead of HC50, hemolytic concentration10 (HC10) was used to evaluate hemolytic activity of peptoids used in this study. HC10 represents the concentration of antimicrobial agents where 10% of erythrocytes are lysed. HC10 values were detectable for only four peptoid oligomers. […] Antimicrobial activity was tested against the gram-negative strain Escherichia coli ATCC 25922, and […] strains Staphylococcus aureus ATCC 25923, and Bacillus subtilis ATCC 6633, according to the guidelines given in the document […]-A7 of the CLSI (Clinical and Laboratory Standards Institute; Clinical and Laboratory Standards Institute. Methods for Dilution Antimicrobial Susceptibility Tests for Bacteria That Grow Aerobically-Seventh Edition: Approved Standard CLSI document […]-A7. CLSI, Wayne, USA, 2006). This reference is incorporated herein in its entirety. Hemolytic activity was tested against fresh human erythrocytes.

Row | SMILES | MIC B. sub ([1]; B. subtilis ATCC 6633) | MIC E. coli ([2]; E. coli ATCC 25922) | MIC S. aureus ([3]; S. aureus ATCC 25923) | HC10 (concentration where 10% hemolysis is observed) ([4]; fresh human erythrocytes) | HC50 (concentration where 50% hemolysis is observed) ([4]; fresh human erythrocytes) | MIC B. sub ([1]; ATCC 6633) | MIC E. coli ([2]; ATCC 25922) | MIC S. aureus ([3]; ATCC 25923) | HC10 (concentration where 10% hemolysis is observed) ([4]; red cells of human) | HC50 (concentration where 50% hemolysis is observed) ([4]; red cells of human)
1 | CC(=O)N(CC(=O)N(CCCN)CC(=O)N(CC(=O)N(CC(=O)N1CCC[C@H]1C(=O)N(CC(=O)N(CCCN)CC(=O)N(CC(=O)N(CC(=O)N1CCC[C@H]1C(N)=O)Cc1ccccc1)CC(C)C)C(C)C)Cc1ccccc1)CC(C)C)C(C)C [Compound 11, Ac(NipNapNibNpmPro)2] (Ac-[N(iPr)Gly][Gly(N(CH2)3NH2)][Nleu][Nphe]P[N(iPr)Gly][Gly(N(CH2)3NH2)][Nleu][Nphe]P-NH2) | >500 µg/mL | >500 µg/mL | >500 µg/mL | >250 µg/mL | >250 µg/mL | – | – | – | – | –
2 | NCCCN1CC(=O)N(Cc2ccccc2)CC(=O)N(CCCN)CC(=O)N(Cc2ccccc2)CC(=O)N(CCCN)CC(=O)N(Cc2ccccc2)CC1=O [Compound 23, C(NapNpm)3] (cyclo([Nphe][Gly(N(CH2)3NH2)][Nphe][Gly(N(CH2)3NH2)][Nphe][Gly(N(CH2)3NH2)])) | – | – | – | – | – | 500 µg/mL (≈ 638 µM) | >500 µg/mL | 500 µg/mL (≈ 638 µM) | >250 µg/mL | >250 µg/mL
3 | CC(=O)N(CCCN)CC(=O)N(CC(=O)N(CCCN)CC(=O)N(CC(=O)N(CCCN)CC(=O)N(CC(N)=O)Cc1ccc2ccccc2c1)Cc1ccc2ccccc2c1)Cc1ccc2ccccc2c1 [Compound 5, Ac(NapNnm)3] | – | – | – | – | – | 2 µg/mL (≈ 2.01 µM) | 62.5 µg/mL (≈ 62.9 µM) | 125 µg/mL (≈ 126 µM) | >250 µg/mL | >250 µg/mL
4 | CC(=O)N(CCCN)CC(=O)N(CC(=O)N(CCCN)CC(=O)N(CC(=O)N(CCCN)CC(=O)N(CCCN)CC(N)=O)Cc1ccccc1)Cc1ccccc1 [Compound 6, Ac(NapNpm)2Nap2] (Ac-[Gly(N(CH2)3NH2)][Nphe][Gly(N(CH2)3NH2)][Nphe][Gly(N(CH2)3NH2)][Gly(N(CH2)3NH2)]-NH2) | – | – | – | – | – | >500 µg/mL | >500 µg/mL | >500 µg/mL | >250 µg/mL | >250 µg/mL
5 | NCCCCN1CC(=O)N(Cc2ccccc2)CC(=O)N(CCCCN)CC(=O)N(Cc2ccccc2)CC(=O)N(CCCCN)CC(=O)N(Cc2ccccc2)CC1=O [Compound 30, C(NabNpm)3] (cyclo([Nlys][Nphe][Nlys][Nphe][Nlys][Nphe])) | – | – | – | – | – | 250 µg/mL (≈ 303 µM) | 250 µg/mL (≈ 303 µM) | 500 µg/mL (≈ 605 µM) | >250 µg/mL | >250 µg/mL
6 | CC(=O)N(CC(=O)N(CCCCNC(=N)N)CC(=O)N(CC(=O)N(CCCCNC(=N)N)CC(=O)N(CC(=O)N(CC(N)=O)CC(c1ccccc1)c1ccccc1)CC(c1ccccc1)c1ccccc1)CC(c1ccccc1)c1ccccc1)CC(c1ccccc1)c1ccccc1 [Compound 16, Ac(NdpNgb)2Ndp2] | >500 µg/mL | >500 µg/mL | 62.5 µg/mL (≈ 46.3 µM) | 250 µg/mL | >250 µg/mL | – | – | – | – | –
7 | CC(C)CN1CC(=O)N(CCCCNC(=N)N)CC(=O)N(C(C)C)CC(=O)N2CCC[C@H]2C(=O)N(CC(c2ccccc2)c2ccccc2)CC(=O)N(CC(C)C)CC(=O)N(CCCCNC(=N)N)CC(=O)N(C(C)C)CC(=O)N2CCC[C@H]2C(=O)N(CC(c2ccccc2)c2ccccc2)CC1=O [Compound 28, C(NdpNibNgbNipPro)2] (cyclo([Nleu][NhArg][N(iPr)Gly]P[X1][Nleu][NhArg][N(iPr)Gly]P[X1])) | – | – | – | – | – | 62.5 µg/mL (≈ 43.6 µM) | 31.3 µg/mL (≈ 21.8 µM) | 62.5 µg/mL (≈ 43.6 µM) | >250 µg/mL | >250 µg/mL
8 | CC(C)CN1CC(=O)N(CCCN)CC(=O)N(C(C)C)CC(=O)N2CCC[C@H]2C(=O)N(Cc2ccccc2)CC(=O)N(CC(C)C)CC(=O)N(CCCN)CC(=O)N(C(C)C)CC(=O)N2CCC[C@H]2C(=O)N(Cc2ccccc2)CC1=O [Compound 29, C(NpmNibNapNipPro)2] (cyclo([Nleu][Gly(N(CH2)3NH2)][N(iPr)Gly]P[Nphe][Nleu][Gly(N(CH2)3NH2)][N(iPr)Gly]P[Nphe])) | – | – | – | – | – | – | – | – | >250 µg/mL | >250 µg/mL
